From patent US4396543A
Converted amounts (≈) assume the structure as drawn. “And” between values parts separate entries of the source, which are not always exact repeats. Equal values may be shown once.

Tests used:
[1] = system: Staphylococcus aureus X1.1; assay: agar-dilution MIC; type: cell-based; details: two values = two experiments, 2 median of five, 19 median of three experiments
Method: (§1) In Table VII activity is measured by the minimal inhibitory concentration (MIC), i.e. the lowest concentration of compound at which growth of the microorganism is inhibited by the test compound.

[2] = system: Staphylococcus aureus V41; assay: agar-dilution MIC; type: cell-based; details: Staphylococcus aureus V41, penicillin-resistant strain; two values = two experiments; 2 median of five, 19 median of three
Method: as §1

[3] = system: Staphylococcus aureus X400; assay: agar-dilution MIC; type: cell-based; details: Staphylococcus aureus X400, methicillin-resistant strain; two values = two experiments; 2 median of five, 19 median of three
Method: as §1

[4] = system: Staphylococcus epidermidis EPI1; type: cell-based; details: two values = two experiments, 2 median of five, 19 median of three
[5] = system: Staphylococcus epidermidis EPI2; assay: agar-dilution MIC; type: cell-based; details: two values = two experiments, 2 median of five, 19 median of three
[6] = system: Streptococcus pyogenes C203; assay: agar-dilution MIC; type: cell-based; details: two values = two experiments, 2 median of five, 19 median of three
[7] = system: Streptococcus pneumoniae Park I; type: cell-based; details: two values = two experiments, 2 median of five, 19 median of three
Method: as §1

[8] = system: Streptococcus Group D X66; assay: agar-dilution MIC; type: cell-based; details: two values = two experiments, 2 median of five, 19 median of three
Method: as §1

[9] = system: Streptococcus Group D 9960; assay: agar-dilution MIC; type: cell-based; details: two values = two experiments, 2 median of five, 19 median of three
Method: as §1

[10] = toxicity test, LD50; details: mouse, in vivo, iv; administered intravenously; read-out: LD50 (mg/kg) in Mice
[11] = system: Staphylococcus aureus; assay: in vivo experimental bacterial infection, ED50; details: mice, two doses subcutaneously; two values = two experiments
[12] = system: Streptococcus pyogenes; assay: in vivo experimental bacterial infection, ED50; details: mice; for ED50 Values Streptococcus pyogenes Oral: two doses orally; for ED50 Values Streptococcus pyogenes Subcutaneous: two doses subcutaneously, two values = two experiments

Structure (SMILES) | MIC [1] [µg/mL] | MIC [2] [µg/mL] | MIC [3] [µg/mL] | MIC [4] [µg/mL] | MIC [5] [µg/mL] | MIC [6] [µg/mL] | MIC [7] [µg/mL] | MIC [8] [µg/mL] | MIC [9] [µg/mL] | LD50 [10] [mg/kg] | ED50 Values Staphylococcus aureus Subcutaneous [11] | ED50 Values Streptococcus pyogenes Oral [12] [mg/kg × 2] | ED50 Values Streptococcus pyogenes Subcutaneous [12] [mg/kg × 2]
CCCCCCCCCC(=O)N[C@@H](Cc1ccccc1)C(=O)N[C@@H](Cc1c[nH]c2ccccc12)C(=O)N[C@H](CC(N)=O)C(=O)N[C@@H](CC(=O)O)C(=O)N[C@@H]1C(=O)NCC(=O)N[C@@H](CCCN)C(=O)N[C@@H](CC(=O)O)C(=O)N[C@H](C)C(=O)N[C@@H](CC(=O)O)C(=O)NCC(=O)N[C@H](CO)C(=O)N[C@@H]([C@H](C)CC(=O)O)C(=O)N[C@@H](CC(=O)c2ccccc2N)C(=O)O[C@@H]1C [Compound 19, NTrp-[N-(n-Decanoyl)-L-phenylalanyl]-A-21978C Nucleus] | 0.5 (≈ 0.283 µM) | 0.5 (≈ 0.283 µM) | 1 (≈ 0.566 µM) | 1 (≈ 0.566 µM) | 0.5 (≈ 0.283 µM) | 0.25 (≈ 0.141 µM) | 0.75 (≈ 0.424 µM) | 8 (≈ 4.53 µM) | 2 (≈ 1.13 µM) | 600 | 0.7 mg/kg × 2 and 0.98 mg/kg × 2 | > 200 | 0.39
CCCCCCCCCCCC(=O)NCCCCCCCCCCC(=O)N[C@@H](Cc1c[nH]c2ccccc12)C(=O)N[C@H](CC(N)=O)C(=O)N[C@@H](CC(=O)O)C(=O)N[C@@H]1C(=O)NCC(=O)N[C@@H](CCCN)C(=O)N[C@@H](CC(=O)O)C(=O)N[C@H](C)C(=O)N[C@@H](CC(=O)O)C(=O)NCC(=O)N[C@H](CO)C(=O)N[C@@H]([C@H](C)CC(=O)O)C(=O)N[C@@H](CC(=O)c2ccccc2N)C(=O)O[C@@H]1C [Compound 3] | 2 (≈ 1.09 µM) | 2 (≈ 1.09 µM) | 8 (≈ 4.37 µM) | 8 (≈ 4.37 µM) | 8 (≈ 4.37 µM) | 2 (≈ 1.09 µM) | 0.5 (≈ 0.273 µM) | 8 (≈ 4.37 µM) | 8 (≈ 4.37 µM) | 600 | > 18 mg/kg × 2 | > 200 | 6.2
